Activity calls are given as the source filed them. No cut-off for these calls is given here.

Holding throughout (format): functional
In experiment [1] the test system is Oryctolagus cuniculus. The experiment can be described thus: Ocular hypotensive activity in New Zealand albino rabbit eye assessed as reduction in hypertonic saline-induced intraocular pressure at 1% administered as eye drop measured at 4 hrs post administration by applanation tonometry.
Experiment [2] relates to Oryctolagus cuniculus. The experiment can be described thus: Ocular hypotensive activity in New Zealand albino rabbit eye assessed as reduction in hypertonic saline-induced intraocular pressure at 1% administered as eye drop measured at 60 mins post administration by applanation tonometry.
For experiment [3], the system named is Oryctolagus cuniculus. The experiment can be described thus: Ocular hypotensive activity in New Zealand albino rabbit eye assessed as reduction in hypertonic saline-induced intraocular pressure at 2% administered as eye drop measured at 60 mins post administration by applanation tonometry.

Take `Cc1ncc(-c2ccc(S(N)(=O)=O)cc2)o1`: the outcome in experiment [1] and in experiment [2] was Active. As to `NS(=O)(=O)c1ccc(-c2cnc(C(=O)N3CCOCC3)o2)s1`, the result in experiment [1] and in experiment [2] was Active. Turning to `CCN[C@H]1C[C@H](C)S(=O)(=O)c2sc(S(N)(=O)=O)cc21`, the outcome in experiment [3] was Active.

(Values after ChEMBL document CHEMBL4043115, “1,3-Oxazole-based selective picomolar inhibitors of cytosolic human carbonic anhydrase II alleviate ocular hypertension in rabbits: Potency is supported by X-ray crystallography of two leads” (Bioorg Med Chem, 2017).)
